“Also recorded” adds a separate entry of the source. Like-named read-outs stand apart in the source and are kept apart here.
Test system: bacteria, fungi, and/or yeasts
Type: binding
[1] = microorganism(s) the targeting peptide binds, as listed in Table 2
[2] = microorganism(s) listed as target(s) of the targeting peptide, wrapped target lists given cell by cell
[3] = microorganism(s) that the targeting peptide binds, as listed in Table 2

Substance	Target(s) [1]	Target(s) [2]	further results
1T-151 (SVRAVKPIDEIVAWHFPGDFIVN)	A. naeslundii, F. nucleatum, P. gingivalis,; also recorded: T. denticola, S. gordonii,; also recorded: S. mitis, S. mutans, S. oralis,; also recorded: S. salivarious, S. sanguinis	–	–
1T-295 (KYKLKKIIL)	–	S. mitis, S. salivarious, S. sanguinis	–
1T-290 (IINQLNLILLRLMEILIL)	–	A. naeslundii, F. nucleatum, P. gingivalis,; also recorded: S. gordonii, S. mitis,; also recorded: S. mutans, S. oralis, S. salivarious,; also recorded: S. sanguinis	–
1T-62 (GCKGCAQRDPCAEPEPYFRLR)	S. epidermidis, P. aeruginosa	–	–
1T-280 (TNNKNKVIIKAIKFKNKDFINLDLFIYRR)	–	A. naeslundii, F. nucleatum, P. gingivalis,; also recorded: T. denticola, S. gordonii,; also recorded: S. mitis, S. mutans, S. oralis,; also recorded: S. salivarious, S. sanguinis	–
PF-C084 (FFSVIFLFGLNYLICNSPLFNILR)	–	–	Target(s) [3]: A. naeslundii, F. nucleatum, P. gingivalis,; also recorded: S. mutans
1T-180 (VVFGGGDRLV)	A. naeslundii, F. nucleatum, P. gingivalis,; also recorded: T. denticola, S. gordonii,; also recorded: S. mitis, S. mutans, S. oralis,; also recorded: S. salivarious, S. sanguinis	–	–
PF-795 (ALHKSGIQVIADWVPDQIYN)	–	–	Target(s) [3]: S. mutans
1T-17 (NNAIVYIS)	S. mutans	yeast and hyphal forms	–
1T-92 (GQDEGQRRAGVGEGQGVDG)	S. mitis, S. mutans	–	–
PF-C034 (HPMPITVRSRKPGPLTAPSEH)	–	–	Target(s) [3]: S. mutans, E. coli
1T-121 (FAKETGFGIGGAQEGWWIIADIYGPNPF)	S. gordonii, S. mitis, S. mutans,; also recorded: S. oralis, S. salivarious, S. sanguinis	–	–
1T-163 (MENILIYIPMVLSPFGSGILLFLGKDRRYML)	A. naeslundii, F. nucleatum, P. gingivalis,; also recorded: S. epidermidis, S. gordonii,; also recorded: S. mitis, S. mutans, S. oralis,; also recorded: S. salivarious, S. sanguinis	–	–
PF-132 (RPGDGAAEQGRSR)	–	S. epidermidis, C. jeikeium	–
PF-790 (PAGPDHLDQRDHR)	–	–	Target(s) [3]: Mycobacteria spp.
PF-543	–	C. albicans hyphae	–
TT-307 (NGDKKAKEELDKWDEVIKELNIQF)	–	F. nucleatum	–
1T-171 (SVRAVKPIDKTVARHFPGDFIVN)	A. naeslundii, F. nucleatum, P. gingivalis,; also recorded: S. epidermidis, S. gordonii,; also recorded: S. mitis, S. mutans, S. oralis,; also recorded: S. salivarious, S. sanguinis	–	–
1T-18 (YSKTLHFAD)	S. aureus, S. epidermidis, C. striatum,; also recorded: P. aeruginosa	–	–
PF-796 (YTQSNIPTAYALMLSNKDSI)	–	–	Target(s) [3]: S. mutans
1T-60 (YLTSLGLDAAEQAQGLLTILKG)	S. aureus, S. epidermidis, C. jeikeium,; also recorded: C. striatum, P. aeruginosa	–	–
PF-139 (ALSKPAIQARTLCRRQDPP)	–	S. epidermidis, M. luteus, P. mirabilis,; also recorded: E. coli, P. aeruginosa,; also recorded: C. albicans, S. pneumoniae, E. faecalis,; also recorded: C. jeikeium, C. jejuni	–
PF-C194 (NTNDLLQAFELMGLGMAGVFIVLGILYIVAELLIKIFPVNN)	–	–	Target(s) [3]: A. naeslundii, F. nucleatum, P. gingivalis,; also recorded: S. mutans, T. denticola
1T-83 (QKPRKNETFIGYIQRYDIDGNGYQSLPCPQN)	S. pneumoniae	–	–

Substance	Target(s) [1]	Target(s) [2]	further results
1T-286 (LGFFNNKADLVKADTERDNRMSSLKIKDL)	–	S. sanguinis	–
PF-012 (WRGPNTEAGGKSANNIVQVGGAPT)	–	S. epidermidis, M. luteus, P. mirabilis,; also recorded: E. coli, P. aeruginosa,; also recorded: MRSA, S. pneumoniae, C. jeikeium,; also recorded: C. jejuni	–
1T-130 (QKIIDMSKFLFSLILFIMIVVIYIGKSIGGYSAIVSSIMLELDTVLYNKKIFFIYK)	A. naeslundii, F. nucleatum, P. gingivalis,; also recorded: S. epidermidis, S. gordonii,; also recorded: S. mitis, S. mutans, S. oralis,; also recorded: S. salivarious, S. sanguinis	–	–
PF-144 (RSGQPVGRPSRRAWLR)	–	S. epidermidis, M. luteus, E. coli,; also recorded: C. albicans, MRSA, S. pneumoniae,; also recorded: E. faecalis, C. jeikeium	–
1T-166 (AQSAGQIKRKSKVRIHV)	A. naeslundii, F. nucleatum, P. gingivalis,; also recorded: S. epidermidis, S. gordonii,; also recorded: S. mitis, S. mutans, S. oralis,; also recorded: S. salivarious, S. sanguinis	–	–
TT-308 (GLVIIPNLIALIILFSQVRQQTKDYFSNPKLSSR)	–	F. nucleatum	–
PF-C160 (AASGFTYCASNGVWHPY)	–	–	Target(s) [3]: F. nucleatum
PF-046 (LDFYLTKHLTLML)	–	E. coli, E. faecalis, C. jeikeium	–
1T-132 (YSKKLFEYFYFIIFILIRYLIFYKIIQNKNYYINNIAYN)	A. naeslundii, F. nucleatum, P. gingivalis,; also recorded: S. epidermidis, S. gordonii,; also recorded: S. mitis, S. mutans, S. oralis,; also recorded: S. salivarious, S. sanguinis	–	–
PF-126 (FSPEAFGIGAAGVLGSFVTGLLIGWVASLLRKAK)	–	S. epidermidis, M. luteus, P. mirabilis,; also recorded: E. coli, P. aeruginosa,; also recorded: C. albicans, MRSA, S. pneumoniae,; also recorded: E. faecalis, C. jeikeium,; also recorded: C. jejuni	–
1T-279 (FVLRTKHCFY)	–	A. naeslundii, F. nucleatum, P. gingivalis,; also recorded: S. gordonii, S. mitis,; also recorded: S. mutans, S. oralis, S. salivarious,; also recorded: S. sanguinis	–
PF-S029 (TSDTQSQSPWLFDNADIVNIYPVQLMHSSDND)	–	–	Target(s) [3]: M. luteus, P. mirabilis, E. coli, C. albicans,; also recorded: C. jeikeium, C. jejuni
1T-50 (HSDEPIPNILFKSDSVH)	P. aeruginosa	–	–
PF-C139 (LLASHPERLSLGVFFVYRVLHLLLENT)	–	–	Target(s) [3]: A. naeslundii, F. nucleatum, P. gingivalis,; also recorded: S. mutans, T. denticola
1T-125 (DAITGGNPPLSDTDGLRP)	S. epidermidis, S. gordonii, S. mutans,; also recorded: S. oralis	–	–
1T-202 (LCRLEKLCKQFLRQDKVVTYYLMLPYKRAIEAFYQELKERS)	A. naeslundii, F. nucleatum, P. gingivalis,; also recorded: S. epidermidis, S. gordonii,; also recorded: S. mitis, S. mutans, S. oralis,; also recorded: S. salivarious, S. sanguinis	–	–
PF-160 (SFHASLTKNEKPIKSTG)	–	S. epidermidis	–
1T-4 (LDAYGELVGGN)	L. casei; also recorded: S. mutans, S. gordonii, S. sanguinis,; also recorded: S. oralis, V. atypica,	–	–
1T-303 (LDYENMDCKKRIRI)	–	A. naeslundii, F. nucleatum, P. gingivalis,; also recorded: S. gordonii, S. mitis,; also recorded: S. mutans, S. oralis, S. salivarious,; also recorded: S. sanguinis	–
1T-31 (NATGTDIGEVTLTLGRFS)	S. mutans, P. aeruginosa	–	–
1T-296 (EYSQQSFKAKPCSERGVLSP)	–	A. naeslundii, F. nucleatum, P. gingivalis,; also recorded: S. gordonii, S. mitis,; also recorded: S. mutans, S. oralis, S. salivarious,; also recorded: S. sanguinis	–
PF-173 (AGRTAIVQGGG)	–	S. epidermidis, M. luteus, P. mirabilis,; also recorded: E. coli, P. aeruginosa,; also recorded: C. albicans, C. jeikeium, C. jejuni	–
1T-256 (KGKSLMPLLKQINQWGKLYL)	–	S. sanguinis	–
Rv2369c (VRQVPVDRPESRHQKPGDVPRDPRC)	–	C. albicans	–

Substance	Target(s) [1]	Target(s) [2]	further results
PF-C095 (LLALNMNEDTYYFELFFIFDNQNKKWLIFDLKERG)	–	–	Target(s) [3]: A. naeslundii, F. nucleatum, P. gingivalis,; also recorded: S. mutans
1T-142 (FTQGIKRIVLKRLKED)	A. naeslundii, F. nucleatum, P. gingivalis,; also recorded: T. denticola, S. gordonii,; also recorded: S. mitis, S. mutans, S. oralis,; also recorded: S. salivarious, S. sanguinis	–	–
1T-108 (WGPLGPERPLW)	S. gordonii, S. mitis, S. mutans,; also recorded: S. oralis, S. salivarious, S. sanguinis	–	–
PF-787 (MTERQRRALLKQHPEVVSWSDYLEKRKRRTGTAG)	–	–	Target(s) [3]: Mycobacteria spp.
1T-69 (ILSQEADRKKLF)	S. mutans, P. aeruginosa	–	–
PF-064 (DYYGKE)	–	E. coli	–
PF-C069 (NALMLREMQLAKNIKVEVTDVLSNKKYC)	–	–	Target(s) [3]: A. naeslundii, F. nucleatum, P. gingivalis,; also recorded: S. mutans, T. denticola
PF-C064 (DEEALEMGANLYAQFAIDFLNSKK)	–	–	Target(s) [3]: A. naeslundii, F. nucleatum, P. gingivalis,; also recorded: S. mutans, T. denticola
1T-3 (VLGIAGGLDAYGELVGGN)	S. mutans, S. gordonii	–	–
PF-C093 (EKLGTMV)	–	–	Target(s) [3]: A. naeslundii, F. nucleatum, S. mutans
PF-C080 (INIPGLF)	–	–	Target(s) [3]: A. naeslundii, F. nucleatum, S. mutans
PF-018 (YYKTYFKEV)	–	E. coli, C. jeikeium	–
1T-134 (SRLVREIKKKCRKS)	A. naeslundii, F. nucleatum, P. gingivalis,; also recorded: S. epidermidis, S. gordonii,; also recorded: S. mitis, S. mutans, S. oralis,; also recorded: S. salivarious, S. sanguinis	–	–
PF-U (TFFRLFNRSFTQALGK)	–	–	Target(s) [3]: S. mutans
1T-72 (EPTDGVACKER)	P. aeruginosa	–	–
PF-140 (FHRRVIRASEWALTTRSFSTPLRSAAR)	–	S. epidermidis, M. luteus, P. mirabilis,; also recorded: E. coli, P. aeruginosa,; also recorded: C. albicans, MRSA, S. pneumoniae,; also recorded: E. faecalis, C. jeikeium,; also recorded: C. jejuni, M. smegmatis	–
1T-37 (YIVGALVILAVAGLIYSMLRKA)	S. mutans, S. aereus, S. epidermidis,; also recorded: C. jeikeium, C. xerosis,; also recorded: C. striatum, P. aeruginosa	–	–
1T-178 (LLASHPERLSLGVFFVYRVLHLLLENT)	A. naeslundii, F. nucleatum, P. gingivalis,; also recorded: S. epidermidis, S. gordonii,; also recorded: S. mitis, S. mutans, S. oralis,; also recorded: S. salivarious, S. sanguinis	–	–
1T-29 (GSVIKKRRKRMSKKKHRKMLRRTRVQRRKLGK)	S. mutans, S. aureus, S. epidermidis,; also recorded: C. jeikeium, C. xerosis,; also recorded: C. striatum, P. aeruginosa	–	–
1T-298 (ILNKKPKLPLWKLGKNYFRRFYVLPTFLA)	–	A. naeslundii, F. nucleatum, P. gingivalis,; also recorded: T. denticola, S. gordonii,; also recorded: S. mitis, S. mutans, S. oralis,; also recorded: S. salivarious, S. sanguinis	–
PF-037 (MTKKRRYDTTEFGLAHSMTAKITLHQALYK)	–	S. epidermidis, M. luteus, P. aeruginosa,; also recorded: C. albicans, MRSA,; also recorded: S. pneumoniae, E. faecalis, C. jeikeium	–
PF-074 (RDIHPIYFMTKD)	–	S. epidermidis, M. luteus, MRSA	–
1T-71 (KIDTNQWPPNKEG)	P. aeruginosa	–	–
PF-069 (FDPVPLKKDKSASKHSHKHNH)	–	E. faecalis, C. jejuni	–

From patent publication US20120003661A1, “METHODS AND DEVICES FOR THE SELECTIVE DETECTION OF MICROORGANISMS” (C3 JIAN, INC., priority 2010, published 2012)
